Laboratory results published in patent US20150353495A1 (PORTOLA PHARMACEUTICALS, INC., priority 2010, published 2015).

How the values were obtained:
Format in all cases: biochemical
JAK1 = biological target: T1, JAK1 (Homo sapiens, UniProt P23458); assay: Z'-LYTE kinase assay JAK1
T1 construct: 5 μl of catalytic domain recombinant Kinase enzyme+Tyr peptide substrate (Invitrogen, CA); purchased Invitrogen
Description: (§1) JAK and TYK2 tyrosine phosphorylation activity is measured using the Z′-LYTE™ Technology developed by Invitrogen Corporation (Carlsbad, Calif.). For JAK1, JAK2 and JAK3 the Z′-LYTE™ Kinase Assay Kit-Tyr6 Peptide (part number PV4122) was used. For TYK2 the Z′-LYTE™ Kinase Assay Kit-Tyr6 Peptide (part number PV3192) was used. The Z′-LYTE™ biochemical assay employs a fluorescence resonance energy transfer (FRET) coupled-enzyme format and is based on the differential sensitivity of phosphorylated and non-phosphorylated peptides to proteolitic cleavage. The assay uses a synthetic peptide substrate that is labelled with a donor fluorophore (coumarin) and an acceptor fluorophore (fluorescein) that make up a FRET pair. In the primary reaction (the Kinase Reaction), the kinase transfers the γ-phosphate of ATP to a single tyrosine residue on the substrate, while the presence of a kinase inhibitor in the primary reaction suppresses phosphorylation. In the secondary reaction (the Development Reaction), a site-specific protease (the Development Reagent) is added. The development buffer quenches the Kinase Reaction, while the protease recognizes and cleaves non-phosphorylated Z′-LYTE™ peptide substrate. Cleavage disrupts FRET between the donor and acceptor fluorophores on the non-phosphoryleted substrate, while uncleaved, phosphorylated substrate maintains FRET.
(§2) To test the ability of candidate molecules to inhibit JAK tyrosine phosphorylation activity, molecules are reconstituted in 100% DMSO and serially diluted 1:10 in polypropylene v-bottom microtiter plates. The candidate molecules are then diluted 1:25 into kinase buffer and 2.5 μl transferred into duplicate wells of a 384 well low volume black microtiter assay plate (Corning, USA). The final DMSO concentration in the assay is 1%. The kinase reaction contains 2.5 μl of a candidate molecule, 5 μl of catalytic domain recombinant Kinase enzyme+Tyr peptide substrate (Invitrogen, CA) and 2.5 μl ATP (Invitrogen, CA). The kinase reaction is allowed to procede for 1 hour at room temperature. The protease reaction is initiated by the addition of 5 μl Development Reagent (Invitrogen, CA). After 1 hour incubation at room temperature the fluorescence is measured using a FlexStation plate reader (Molecular Devices, Sunnyvale, Calif.).

JAK3 = biological target: T2, JAK3 (Homo sapiens, UniProt P52333); assay: Z'-LYTE kinase assay JAK3
T2 construct: 5 μl of catalytic domain recombinant Kinase enzyme+Tyr peptide substrate (Invitrogen, CA); purchased Invitrogen
T2 sequence (P52333 822-1111 limits assumed): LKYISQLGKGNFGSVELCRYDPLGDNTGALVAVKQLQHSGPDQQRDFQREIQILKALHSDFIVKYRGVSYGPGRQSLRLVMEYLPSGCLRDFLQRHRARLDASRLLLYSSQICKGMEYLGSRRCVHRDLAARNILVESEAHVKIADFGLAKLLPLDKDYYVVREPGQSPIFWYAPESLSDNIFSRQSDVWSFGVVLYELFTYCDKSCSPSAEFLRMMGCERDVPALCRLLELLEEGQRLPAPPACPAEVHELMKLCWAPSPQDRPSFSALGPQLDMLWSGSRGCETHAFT
Description: as §1, §2

JAK2 = biological target: T3, JAK2 (Homo sapiens, UniProt O60674); assay: Z'-LYTE kinase assay JAK2
T3 construct: 5 μl of catalytic domain recombinant Kinase enzyme+Tyr peptide substrate (Invitrogen, CA); purchased Invitrogen
T3 sequence (O60674 849-1124 limits assumed): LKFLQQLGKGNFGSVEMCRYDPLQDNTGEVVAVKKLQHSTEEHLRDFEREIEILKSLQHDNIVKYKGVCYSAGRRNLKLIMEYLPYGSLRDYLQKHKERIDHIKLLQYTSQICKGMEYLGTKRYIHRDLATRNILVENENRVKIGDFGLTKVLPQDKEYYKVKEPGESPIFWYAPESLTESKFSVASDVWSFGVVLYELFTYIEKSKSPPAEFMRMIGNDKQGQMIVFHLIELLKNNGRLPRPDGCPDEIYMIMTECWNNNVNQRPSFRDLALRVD
Description: as §1, §2

T1 sequence (P23458 875-1153 limits assumed): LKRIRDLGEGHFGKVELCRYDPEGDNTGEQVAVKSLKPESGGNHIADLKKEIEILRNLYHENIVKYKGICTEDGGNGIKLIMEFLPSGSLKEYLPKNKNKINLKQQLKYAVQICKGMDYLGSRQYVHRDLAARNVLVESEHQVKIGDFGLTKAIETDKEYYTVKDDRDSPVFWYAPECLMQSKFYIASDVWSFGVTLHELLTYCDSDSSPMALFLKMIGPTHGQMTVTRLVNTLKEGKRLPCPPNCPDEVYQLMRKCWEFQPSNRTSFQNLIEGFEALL

Row | Compound | IC50 (JAK1) | IC50 (JAK3) | IC50 (JAK2)
1 | NC(=O)c1cnc(Nc2ccc(C3CCOCC3)cc2)cc1NCc1nccs1 [Example 172, 6-(4-(tetrahydro-2H-pyran-4-yl)phenylamino)-4-(thiazol-2-ylmethylamino)nicotinamide] | 100 to 1000 nM | 10 to 100 nM | 100 to 1000 nM
2 | CC(=O)N1CCC(CNc2cc(Nc3ccc(C(=O)N4CCCC4)cc3)ncc2C(N)=O)CC1 [Example 43, 4-((1-acetylpiperidin-4-yl)methylamino)-6-(4-(pyrrolidine-1-carbonyl)phenylamino)nicotinamide] | > 1000 nM | 100 to 1000 nM | > 1000 nM
3 | NC(=O)c1cnc(Nc2ccc3cnccc3c2)cc1NCc1ccccc1 [Example 88, 4-(benzylamino)-6-(isoquinolin-6-ylamino)nicotinamide] | > 1000 nM | 10 to 100 nM | > 1000 nM
4 | CC(=O)N1CCN(c2ccc(Nc3cc(NCc4ccc(F)cc4F)c(C(N)=O)cn3)cc2)CC1 [Example 259, 6-(4-(4-acetylpiperazin-1-yl)phenylamino)-4-(2,4-difluorobenzylamino)nicotinamide] | > 1000 nM | 10 to 100 nM | 100 to 1000 nM
5 | CCC(=O)N1CCC(c2ccc(Nc3cc(NCc4cccc5ccsc45)c(C(N)=O)cn3)cc2)CC1 [Example 211, 4-(benzo[b]thiophen-7-ylmethylamino)-6-(4-(1-propionylpiperidin-4-yl)phenylamino)nicotinamide] | > 1000 nM | 1 to 10 nM | 100 to 1000 nM
6 | CN(C)C(=O)c1ccc(Nc2cc(NCc3cccc4cc[nH]c34)c(C(N)=O)cn2)cc1 [Example 288, 4-((1H-indol-7-yl)methylamino)-6-(4-(dimethylcarbamoyl)phenylamino)nicotinamide] | > 1000 nM | 1 to 10 nM | 10 to 100 nM
7 | NC(=O)c1cnc(Nc2ccc(C3CCOCC3)cc2)cc1NCc1ncccn1 [Example 175, 4-(pyrimidin-2-ylmethylamino)-6-(4-(tetrahydro-2H-pyran-4-yl)phenylamino)nicotinamide] | > 1000 nM | 100 to 1000 nM | > 1000 nM
8 | NC(=O)c1cnc(Nc2ccc3cccnc3c2)cc1NCc1ccccc1 [Example 87, 4-(benzylamino)-6-(quinolin-7-ylamino)nicotinamide] | > 1000 nM | 100 to 1000 nM | > 1000 nM
9 | CS(=O)(=O)N1CCC(CNc2cc(Nc3ccc(C4CCOCC4)cc3)ncc2C(N)=O)CC1 [Example 159, 4-((1-(methylsulfonyl)piperidin-4-yl)methylamino)-6-(4-(tetrahydro-2H-pyran-4-yl)phenylamino)nicotinamide] | > 1000 nM | 100 to 1000 nM | > 1000 nM
10 | CC(=O)N1CCC[C@H](CNc2cc(Nc3ccc(C(=O)N(C)C)c(N(C)C)c3)ncc2C(N)=O)C1 [Example 445, (R)-4-((1-acetylpiperidin-3-yl)methylamino)-6-(3-(dimethylamino)-4-(dimethylcarbamoyl)phenylamino)nicotinamide] | > 1000 nM | 100 to 1000 nM | 100 to 1000 nM
11 | CC(=O)N1CCC(CNc2cc(Nc3ccc(C(=O)N4CCOCC4)cc3)ncc2C(N)=O)CC1 [Example 44, 4-((1-acetylpiperidin-4-yl)methylamino)-6-(4-(morpholine-4-carbonyl)phenylamino)nicotinamide] | > 1000 nM | > 1000 nM | > 1000 nM
12 | N#CCc1ccc(Nc2cc(NCc3ccccc3)c(C(N)=O)cn2)cc1 [Example 390] | 100 to 1000 nM | 10 to 100 nM | 100 to 1000 nM
13 | COc1ccc(Nc2cc(NC[C@H]3CCCN(S(=O)(=O)C4CC4)C3)c(C(N)=O)cn2)cc1 [Example 292, (R)-4-((1-(cyclopropylsulfonyl)piperidin-3-yl)methylamino)-6-(4-methoxyphenylamino)nicotinamide] | > 1000 nM | 100 to 1000 nM | > 1000 nM
14 | CCC(=O)N1CCC(c2ccc(Nc3cc(NCc4cnn(C)c4)c(C(N)=O)cn3)cc2)CC1 [Example 178, 4-((1-methyl-1H-pyrazol-4-yl)methylamino)-6-(4-(1-propionylpiperidin-4-yl)phenylamino)nicotinamide] | > 1000 nM | 100 to 1000 nM | > 1000 nM
15 | CCC(=O)N1CCC(c2ccc(Nc3cc(NCc4ccccn4)c(C(N)=O)cn3)cc2)CC1 [Example 179, 6-(4-(1-propionylpiperidin-4-yl)phenylamino)-4-(pyridin-2-ylmethylamino)nicotinamide] | > 1000 nM | 10 to 100 nM | 100 to 1000 nM
16 | NC(=O)c1cnc(Nc2cc(F)cc(F)c2)cc1NCc1cccc2[nH]ccc12 [Example 323, 4-((1H-indol-4-yl)methylamino)-6-(3,5-difluorophenylamino)nicotinamide] | > 1000 nM | 100 to 1000 nM | > 1000 nM
17 | C#CCNc1cc(Nc2ccc(C3CCOCC3)cc2)ncc1C(N)=O [Example 184, 4-(prop-2-ynylamino)-6-(4-(tetrahydro-2H-pyran-4-yl)phenylamino)nicotinamide] | > 1000 nM | 100 to 1000 nM | > 1000 nM
18 | COc1ccc(Nc2cc(NC[C@H]3CCCN(S(C)(=O)=O)C3)c(C(N)=O)cn2)cc1 [Example 57, (R)-6-(4-methoxyphenylamino)-4-((1-(methylsulfonyl)piperidin-3-yl)methylamino)nicotinamide] | > 1000 nM | 10 to 100 nM | 100 to 1000 nM
19 | NC(=O)c1cnc(Nc2ccc(S(=O)(=O)N3CCC3)cc2)cc1NCc1ccccc1 [Example 47, 6-(4-(azetidin-1-ylsulfonyl)phenylamino)-4-(benzylamino)nicotinamide] | > 1000 nM | 100 to 1000 nM | > 1000 nM
20 | COc1ccc(Nc2cc(NCc3cccc4c3ccn4C)c(C(N)=O)cn2)cc1 [Example 303, 6-(4-methoxyphenylamino)-4-((1-methyl-1H-indol-4-yl)methylamino)nicotinamide] | > 1000 nM | 10 to 100 nM | > 1000 nM
21 | COc1ccc(Nc2cc(N[C@@H]3CCCN(C(C)=O)C3)c(C(N)=O)cn2)cc1 [Example 37, (R)-4-(1-acetylpiperidin-3-ylamino)-6-(4-methoxyphenylamino)nicotinamide] | > 1000 nM | > 1000 nM | > 1000 nM
22 | NC(=O)c1cnc(Nc2ccc(OC(F)(F)F)cc2)cc1NCc1cncc(F)c1 [Example 310] | > 1000 nM | 100 to 1000 nM | > 1000 nM
23 | CC(=O)N(C)c1ccc(Nc2cc(NCc3cccc4ccsc34)c(C(N)=O)cn2)cc1 [Example 468, 4-(benzo[b]thiophen-7-ylmethylamino)-6-(4-(N-methylacetamido)phenylamino)nicotinamide] | 100 to 1000 nM | 1 to 10 nM | 10 to 100 nM
24 | Cc1cc(Nc2cc(NCc3cccc(F)c3F)c(C(N)=O)cn2)ccc1C(=O)N1CCC1 [Example 454, 6-(4-(azetidine-1-carbonyl)-3-methylphenylamino)-4-(2,3-difluorobenzylamino)nicotinamide] | 100 to 1000 nM | < 1 nM | 10 to 100 nM
25 | CCC(=O)N1CCC(c2ccc(Nc3cc(N[C@H](C)C4CCCCC4)c(C(N)=O)cn3)cc2)CC1 [Example 191, (R)-4-(1-cyclohexylethylamino)-6-(4-(1-propionylpiperidin-4-yl)phenylamino)nicotinamide] | > 1000 nM | 100 to 1000 nM | > 1000 nM
